From the NIST ThermoML archive (doi:10.1016/j.jct.2006.03.018)

Legend:
[1] = xn = mol fraction of the nth substance listed; settings: 101 kPa, Liquid
[2] = refractive index (Na D-line) (dimensionless); xn = mol fraction of the nth substance listed; settings: 101 kPa, Liquid

CC(C)CCO [3-methylbutan-1-ol] + COc1ccccc1
Settings	mass density, [1] [kg/m3]	refractive index, [2]	speed of sound, [1] [m/s]	viscosity, [1] [mPa·s]
298.15 K, x2 = 0	807.2	1.405	1241	3.835
298.15 K, x2 = 0.103	825.87	1.4159	1258	2.766
298.15 K, x2 = 0.2001	843.32	1.4269	1275	2.153
298.15 K, x2 = 0.3022	861.74	1.4378	1292	1.736
298.15 K, x2 = 0.3995	879.31	1.4487	1309	1.43
298.15 K, x2 = 0.4944	896.5	1.4579	1327	1.254
298.15 K, x2 = 0.5995	915.66	1.4688	1344	1.136
298.15 K, x2 = 0.6915	932.47	1.4797	1361	1.046
298.15 K, x2 = 0.8022	952.8	1.4906	1378	1.005
298.15 K, x2 = 0.9044	971.6	1.5015	1394	0.956
303.15 K, x2 = 0	803.45	1.403	–	3.261
303.15 K, x2 = 0.103	821.94	1.4138	–	2.408
303.15 K, x2 = 0.2001	839.25	1.4247	–	1.885
303.15 K, x2 = 0.3022	857.55	1.4355	–	1.544
303.15 K, x2 = 0.3995	875.01	1.4463	–	1.253
303.15 K, x2 = 0.4944	892.11	1.4575	–	1.135
303.15 K, x2 = 0.5995	911.16	1.468	–	1.03
303.15 K, x2 = 0.6915	929.01	1.4788	–	0.956
303.15 K, x2 = 0.8022	948.15	1.4896	–	0.938
303.15 K, x2 = 0.9044	966.9	1.5005	–	0.881
308.15 K, x2 = 0	791.86	–	–	–
308.15 K, x2 = 0.1036	808.48	1.3966	–	1.242
308.15 K, x2 = 0.2003	827.18	1.4129	–	1.078
308.15 K, x2 = 0.3055	848.11	1.4287	–	0.961
308.15 K, x2 = 0.4053	867.53	1.4426	–	0.879
308.15 K, x2 = 0.5096	888.55	1.4542	–	0.838
308.15 K, x2 = 0.6015	906.1	1.4673	–	0.821
308.15 K, x2 = 0.7071	924.94	1.4793	–	0.802
308.15 K, x2 = 0.8023	942.78	1.4897	–	0.795
308.15 K, x2 = 0.9044	960.74	1.499	–	0.792

COc1ccccc1 [anisole] + CC(C)O
Settings	mass density, 298.15 K [kg/m3]	mass density, 303.15 K [kg/m3]	mass density, 308.15 K [kg/m3]	refractive index, 298.15 K	refractive index, 303.15 K	refractive index, 308.15 K	speed of sound, 298.15 K [m/s]	viscosity, 298.15 K [mPa·s]	viscosity, 303.15 K [mPa·s]	viscosity, 308.15 K [mPa·s]
[1], x1 = 0.0964	809.04	804.55	799.99	–	–	–	1168	1.526	1.335	1.178
[1], x1 = 0.1995	836.66	832.04	827.34	–	–	–	1195	1.236	1.101	0.988
[1], x1 = 0.2995	861.3	856.56	851.78	–	–	–	1223	1.111	1	0.906
[1], x1 = 0.3965	882.77	877.97	873.12	–	–	–	1250	1.019	0.923	0.838
[1], x1 = 0.4947	903.09	898.25	893.38	–	–	–	1277	0.959	0.872	0.798
[1], x1 = 0.5932	921.89	917.04	912.14	–	–	–	1304	0.942	0.864	0.792
[1], x1 = 0.6966	940.52	935.67	930.78	–	–	–	1331	0.91	0.837	0.775
[1], x1 = 0.8069	958.9	954.07	949.22	–	–	–	1358	0.879	0.81	0.742
[1], x1 = 0.9052	974.58	969.52	965.01	–	–	–	1384	0.847	0.783	0.72
[1], x1 = 1	989.15	984.45	979.73	–	–	–	1412	0.988	0.913	0.854
[2], x1 = 0.0964	–	–	–	1.3925	1.3901	1.3879	–	–	–	–
[2], x1 = 0.1995	–	–	–	1.4115	1.4075	1.4064	–	–	–	–
[2], x1 = 0.2995	–	–	–	1.4275	1.4244	1.4226	–	–	–	–
[2], x1 = 0.3965	–	–	–	1.4427	1.4399	1.438	–	–	–	–
[2], x1 = 0.4947	–	–	–	1.4571	1.4535	1.451	–	–	–	–
[2], x1 = 0.5932	–	–	–	1.4701	1.467	1.465	–	–	–	–
[2], x1 = 0.6966	–	–	–	1.482	1.4793	1.4763	–	–	–	–
[2], x1 = 0.8069	–	–	–	1.495	1.4923	1.4884	–	–	–	–
[2], x1 = 0.9052	–	–	–	1.5049	1.5018	1.4999	–	–	–	–
[2], x1 = 1	–	–	–	1.5137	1.5113	1.5088	–	–	–	–

CCCCCO [pentan-1-ol] + COc1ccccc1
x2 = 0
Settings	mass density, 298.15 K [kg/m3]	mass density, 303.15 K [kg/m3]	mass density, 308.15 K [kg/m3]	refractive index, 298.15 K	refractive index, 303.15 K	refractive index, 308.15 K	speed of sound, 298.15 K [m/s]	viscosity, 298.15 K [mPa·s]	viscosity, 303.15 K [mPa·s]	viscosity, 308.15 K [mPa·s]
[1]	810.92	807.23	803.52	–	–	–	1286	3.403	2.959	2.581
[2]	–	–	–	1.4073	1.405	1.4032	–	–	–	–

CCO [ethanol] + COc1ccccc1
x2 = 0
Settings	mass density, 298.15 K [kg/m3]	mass density, 303.15 K [kg/m3]	mass density, 308.15 K [kg/m3]	refractive index, 298.15 K	refractive index, 303.15 K	refractive index, 308.15 K	speed of sound, 298.15 K [m/s]	viscosity, 298.15 K [mPa·s]	viscosity, 303.15 K [mPa·s]	viscosity, 308.15 K [mPa·s]
[1]	785.91	781.6	777.26	–	–	–	1161	1.073	0.971	0.889
[2]	–	–	–	1.3591	1.3572	1.355	–	–	–	–

CCCCO [butan-1-ol] + COc1ccccc1
x2 = 0
Settings	mass density, 298.15 K [kg/m3]	mass density, 303.15 K [kg/m3]	mass density, 308.15 K [kg/m3]	refractive index, 298.15 K	refractive index, 303.15 K	refractive index, 308.15 K	speed of sound, 298.15 K [m/s]	viscosity, 298.15 K [mPa·s]	viscosity, 303.15 K [mPa·s]	viscosity, 308.15 K [mPa·s]
[1]	806.12	802.28	798.41	–	–	–	1246	2.585	2.284	1.981
[2]	–	–	–	1.3968	1.3944	1.3923	–	–	–	–
